Measured values from publication PMC9377006, “Discovery of Desmuramylpeptide NOD2 Agonists with Single-Digit Nanomolar Potency” (ACS Medicinal Chemistry Letters, 2022).

What was measured:
human NOD2 = target: T1, human NOD2 (Homo sapiens, UniProt Q9HC29); assay: HEK-Blue NOD2 NF-κB SEAP reporter assay (NOD2 agonistic activity); assay type: cell-based
T1 construct: host or cells: HEK-Blue NOD2 cells (derived from HEK293)
Method: The synthesized desmuramylpeptides were evaluated for their dose-dependent NOD2 activity using the commercially available HEK-Blue NOD2 reporter cell line. This cell line is derived from HEK293 cells by cotransfection of human NOD2 and an NF-κB-inducible secreted embryonic alkaline phosphatase (SEAP). Activation of NOD2 and subsequently of NF-κB leads to the expression and secretion of SEAP, the level of which can be quantified colorimetrically. […]
two passages, 200 µg/mL Zeocin (Invivogen) was added to the medium every other passage to maintain selection pressure. The cells were incubated in a humidified atmosphere at 37 °C and 5% CO 2. […]
Aldrich), and 100 µg/mL streptomycin (Sigma -Aldrich).
The tested compounds were dissolved in DMSO and further di luted in culture medium to the desired final concentrations, such that the final DMSO concentration never exceeded 0.1%. […]
4.6 NOD1/NOD2-NF-kB reporter assay
HEK-Blue NOD2 or NOD1 cells were seeded (25,000 cells/well) in 96 -well plates in 100 µL HEK-Blue detection medium (Invivogen, San Diego, CA, USA) and treated with compounds ( 2 µM for fixed […]
the corresponding vehicle (0.1% DMSO). After 18 h of incubation (37 °C, 5% CO2), secreted embryonic alkaline phosphatase (SEAP) activity was determined spectrophotometrically as absorbance at 630 nm (BioTek Synergy microplate reader; Winooski, VT, USA). EC50 values were calculated using Prism software (version 9; GraphPad Software, CA, USA). The experiments were run in duplicates and repeated as at least three independent biological replicates. […]

K562 cancer cells = assay: PBMC cytotoxicity against K562 cancer cells; assay type: cell-based
Method: In addition, we also investigated the ability of 40, both alone and in combination with LPS and IFN-γ, to induce direct and nonspecific cytolytic activity of PBMCs against cancer cells. For this purpose, we used a functional cytotoxicity assay based on the coincubation of preactivated PBMCs and fluorescently labeled K562 cancer cells.[33] Among the heterogeneous subpopulations of PBMCs, natural killer (NK) cells and, to a lesser extent, monocytes represent the main effector cell types in this assay. NK cells play an essential role in tumor and viral immunosurveillance, both through direct cytolytic destruction of aberrant cells and by facilitating the recruitment and activation of other immune cells through the secretion of cytokines.[34] In addition to their well-established role in cancer immunotherapy, NK cells thus also provide an attractive target in the development of vaccine adjuvants, particularly when Th1 cellular immune responses are preferred.[35] Other cell populations, however, may contribute to the magnitude of NK cell-mediated responses via cytokine secretion. To account for the contribution of these accessory cells and to more accurately represent in vivo conditions, the entire PBMC population was used instead of isolated NK cells.
Figure 3 2 and 40 synergize with LPS and IFN-γ to induce the cytotoxicity of PBMCs against K562 cancer cells. Following 18 h of stimulation of PBMCs with 2 (1 μM) or 40 (1 μM) in the presence or absence of LPS (1 μg/mL) and IFN-γ (200 U/mL) or the corresponding vehicle (0.1% DMSO; NT), K562 cells were added in a 40:1 effector to target cell ratio. Cytotoxicity was determined after 4 h of coincubation. IL-2 (200 U/mL) was used as the positive control. Data are shown as relative activities to vehicle-treated control (0.1% DMSO) and are the means ± SEMs of duplicates of two independent experiments. Statistical significance was determined by one-way ANOVA followed by Dunnet’s multiple-comparisons test; **, p < 0.01, ***, p < 0.001. […]
4.8 Peripheral blood mononuclear cell cytotoxicity
The PBMC cytotoxicity assays using K562 cells were performed as described previously, with some modifications.2 PBMCs were seeded (400,000 cells/well) in duplicates in 96 -well U-bottom plates and treated with 2 (1 µM) or 40 (1 µM), in the presence or absence of LPS (1 µg/mL) or IFN-γ (200 U/mL), IL-2 (200 U/mL), or the corresponding vehicle (0.1% DMSO) for 18 h. K562 were stained with carboxyfluorescein succinimidyl ester (CFSE, Invitrogen, Carlsbad, CA, USA), washed twice with complete medium, and added (10,000 cells/well) to the pre-treated PBMCs for a final effector cell to target tumor cell ratio of 40:1. After a 4 h coincubation (37 °C, 5% CO2), cells were stained with Sytox Blue dead cell stain (Invitrogen) and analyzed using an Attune NxT flow cytometer (Thermo Fisher Scientific, Waltham, MA, USA) and FlowJo software (Tree Star, Inc., Ashland, OR, USA). Cells that were positive for both CFSE and Sytox Blue were defined as dead K562 cells. PBMCs alone and CFSE-labeled K562 cells alone were also treated with the compounds at the same concentrations and stained with Sytox Blue to exclude any direct cytotoxicity of the compounds towards the PBMCs and cancer cells.
4.9 Cytokine release from peripheral blood mononuclear cells […]

T1 sequence (Q9HC29 whole entry): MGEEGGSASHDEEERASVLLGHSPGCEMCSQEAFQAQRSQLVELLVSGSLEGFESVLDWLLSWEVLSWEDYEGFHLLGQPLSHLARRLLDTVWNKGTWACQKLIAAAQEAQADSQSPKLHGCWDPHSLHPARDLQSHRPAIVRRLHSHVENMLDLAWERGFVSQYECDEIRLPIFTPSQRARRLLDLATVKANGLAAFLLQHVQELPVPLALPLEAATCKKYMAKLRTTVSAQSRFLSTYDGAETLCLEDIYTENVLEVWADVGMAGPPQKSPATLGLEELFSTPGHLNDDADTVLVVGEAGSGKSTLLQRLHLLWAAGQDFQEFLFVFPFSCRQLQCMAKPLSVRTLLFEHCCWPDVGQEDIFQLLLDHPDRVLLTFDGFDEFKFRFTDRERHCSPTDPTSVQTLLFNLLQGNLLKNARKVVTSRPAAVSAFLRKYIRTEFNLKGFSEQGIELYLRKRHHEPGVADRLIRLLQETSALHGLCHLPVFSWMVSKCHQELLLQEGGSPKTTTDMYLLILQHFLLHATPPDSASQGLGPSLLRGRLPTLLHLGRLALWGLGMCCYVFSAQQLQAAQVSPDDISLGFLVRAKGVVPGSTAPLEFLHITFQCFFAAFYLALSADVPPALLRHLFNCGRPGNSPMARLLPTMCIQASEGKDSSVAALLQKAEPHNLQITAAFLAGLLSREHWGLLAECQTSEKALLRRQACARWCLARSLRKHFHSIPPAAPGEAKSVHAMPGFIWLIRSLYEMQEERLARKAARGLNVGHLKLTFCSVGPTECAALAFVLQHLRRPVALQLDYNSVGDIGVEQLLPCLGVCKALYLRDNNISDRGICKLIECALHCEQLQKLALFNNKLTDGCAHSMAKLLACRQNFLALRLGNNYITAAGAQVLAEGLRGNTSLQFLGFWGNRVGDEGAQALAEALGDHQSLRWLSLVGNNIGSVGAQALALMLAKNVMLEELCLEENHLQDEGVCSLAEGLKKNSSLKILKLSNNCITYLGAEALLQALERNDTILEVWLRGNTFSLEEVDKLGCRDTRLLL

Q: Which results are given for `CCOC(=O)CC[C@@H](NC(=O)[C@@H](NC(=O)CNC(=O)/C=C/c1ccc(OC(=O)CC23CC4CC(CC(C4)C2)C3)c(OC)c1)C(C)C)C(=O)OCC` [Compound 40]?
A: EC50 (human NOD2; HEK-Blue NOD2 cells, 18 h, means ± SEMs of at least three independent experiments, 8 or 16 concentrations (0.1 nM to 20 μM)): 4.5 ± 1.1 nM; improvement of activity relative to 1 (human NOD2; NOD2 EC50 versus compound 1): 20 factor; LPS- and IFN-γ-induced cytotoxic activity of PBMCs against K562, costimulation (K562 cancer cells; 1 μM + LPS 1 μg/mL or IFN-γ 200 U/mL, 18 h, 40:1, 4 h): significantly enhanced; cytotoxic activity of PBMCs with costimuli, compared to 2 (K562 cancer cells; 1 μM + LPS or IFN-γ): slightly stronger activity; increase in the ratio of dead K562 cells (K562 cancer cells; PBMCs stimulated 18 h with 1 μM compound alone, 40:1 effector to target ratio, 4 h coincubation, relative to vehicle): 1.28 fold; apoptosis in K562 cells in the absence of PBMCs (K562 cancer cells; cotreatment with 40 and IFN-γ, data not shown): did not induce apoptosis
